According to PubChem BioAssay (NCI):
Values joined by “and” are separate entries in the source; they are usually repeats but may differ in a detail not shown here. Equal entries are not always repeated.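 Cultured in 96-well plates, cells were exposed to test compound for 48 hours across five concentrations. Here, GI50 denotes the concentration required for 50% inhibition of growth. TGI is the concentration that stops growth completely.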

What follows are molecules tested on SK-MEL-28 melanoma (assay: NCI-60 cell line screen, 48 h).

SMILES | TGI | GI50
CCOC(=O)C1C2CCC1CC(=NNc1ccc([N+](=O)[O-])cc1[N+](=O)[O-])C2 (configuration not stated) | > 50 µM | 
O=c1c2ccccc2c(=O)c2c1[nH]c1c(-c3ccccc3)c(-c3ccccc3)c(=O)c12 | 14.3 µM | 3.51 µM
CCc1nc(C(N)=O)c(Nc2ccc(N3CCC(N4CCN(C)CC4)CC3)c(OC)c2)nc1NC1CCOCC1 | 21.2 µM and > 2.91 µM and 19.1 µM | 5.04 µM and 0.641 µM and 3.51 µM
CC/C=C\C[C@H]1C/C=C2/C(=O)C=C[C@@H]2C/C=C\CCCC(=O)O1 | 3.07 µM | 0.791 µM

Each molecule was assayed on HCT-116 colon (assay: NCI-60 cell line screen, 48 h).

SMILES | TGI | GI50
CCOC(=O)C1C2CCC1CC(=NNc1ccc([N+](=O)[O-])cc1[N+](=O)[O-])C2 (configuration not stated) | > 50 µM | 
O=c1c2ccccc2c(=O)c2c1[nH]c1c(-c3ccccc3)c(-c3ccccc3)c(=O)c12 | 4.87 µM | 2.31 µM
CCc1nc(C(N)=O)c(Nc2ccc(N3CCC(N4CCN(C)CC4)CC3)c(OC)c2)nc1NC1CCOCC1 | 14.1 µM and > 10 µM and 14.9 µM | 1.39 µM and 0.34 µM and 1.23 µM
CC/C=C\C[C@H]1C/C=C2/C(=O)C=C[C@@H]2C/C=C\CCCC(=O)O1 | 0.511 µM | 0.218 µM

Each molecule was assayed on A498 renal (assay: NCI-60 cell line screen, 48 h).

SMILES | GI50 | TGI
O=c1c2ccccc2c(=O)c2c1[nH]c1c(-c3ccccc3)c(-c3ccccc3)c(=O)c12 | 3.12 µM | 7.69 µM
CCc1nc(C(N)=O)c(Nc2ccc(N3CCC(N4CCN(C)CC4)CC3)c(OC)c2)nc1NC1CCOCC1 | 0.96 µM and 0.165 µM and 0.931 µM | 4.41 µM and 0.6 µM and 4.9 µM
CC/C=C\C[C@H]1C/C=C2/C(=O)C=C[C@@H]2C/C=C\CCCC(=O)O1 | 1.82 µM | 3.35 µM

Each molecule was assayed on NCI-H23 lung (assay: NCI-60 cell line screen, 48 h).

SMILES | TGI | GI50
CCOC(=O)C1C2CCC1CC(=NNc1ccc([N+](=O)[O-])cc1[N+](=O)[O-])C2 (configuration not stated) | > 50 µM | 
O=c1c2ccccc2c(=O)c2c1[nH]c1c(-c3ccccc3)c(-c3ccccc3)c(=O)c12 | 14.4 µM | 3.72 µM
CCc1nc(C(N)=O)c(Nc2ccc(N3CCC(N4CCN(C)CC4)CC3)c(OC)c2)nc1NC1CCOCC1 | 23.5 µM and > 2.7 µM and 24.7 µM | 1.48 µM and 0.386 µM and 1.2 µM
CC/C=C\C[C@H]1C/C=C2/C(=O)C=C[C@@H]2C/C=C\CCCC(=O)O1 | 5.03 µM | 1.89 µM

These molecules were tested on HCC-2998 colon (assay: NCI-60 cell line screen, 48 h).

SMILES | TGI | GI50
CCOC(=O)C1C2CCC1CC(=NNc1ccc([N+](=O)[O-])cc1[N+](=O)[O-])C2 (configuration not stated) | > 50 µM | 
O=c1c2ccccc2c(=O)c2c1[nH]c1c(-c3ccccc3)c(-c3ccccc3)c(=O)c12 | 5.05 µM | 2.09 µM
CCc1nc(C(N)=O)c(Nc2ccc(N3CCC(N4CCN(C)CC4)CC3)c(OC)c2)nc1NC1CCOCC1 | 22.2 µM and > 3.14 µM and 23.5 µM | 8.08 µM and 1.4 µM and 8.55 µM
CC/C=C\C[C@H]1C/C=C2/C(=O)C=C[C@@H]2C/C=C\CCCC(=O)O1 | 3.22 µM | 1.76 µM

The molecules below were run on OVCAR-8 ovarian (assay: NCI-60 cell line screen, 48 h).

SMILES | TGI | GI50
CCOC(=O)C1C2CCC1CC(=NNc1ccc([N+](=O)[O-])cc1[N+](=O)[O-])C2 (configuration not stated) | > 50 µM | 
O=c1c2ccccc2c(=O)c2c1[nH]c1c(-c3ccccc3)c(-c3ccccc3)c(=O)c12 | 9.33 µM | 2.79 µM
CCc1nc(C(N)=O)c(Nc2ccc(N3CCC(N4CCN(C)CC4)CC3)c(OC)c2)nc1NC1CCOCC1 | 36.8 µM and > 10 µM and 30.2 µM | 10.3 µM and 1.62 µM and 10.1 µM
CC/C=C\C[C@H]1C/C=C2/C(=O)C=C[C@@H]2C/C=C\CCCC(=O)O1 | 10.7 µM | 0.338 µM

The molecules below were run on SW-620 colon (assay: NCI-60 cell line screen, 48 h).

SMILES | TGI | GI50
CCOC(=O)C1C2CCC1CC(=NNc1ccc([N+](=O)[O-])cc1[N+](=O)[O-])C2 (configuration not stated) | > 50 µM | 
O=c1c2ccccc2c(=O)c2c1[nH]c1c(-c3ccccc3)c(-c3ccccc3)c(=O)c12 | 14.1 µM | 3.85 µM
CCc1nc(C(N)=O)c(Nc2ccc(N3CCC(N4CCN(C)CC4)CC3)c(OC)c2)nc1NC1CCOCC1 | 13.6 µM and > 10 µM and 14.8 µM | 1.33 µM and 0.366 µM and 1.29 µM
CC/C=C\C[C@H]1C/C=C2/C(=O)C=C[C@@H]2C/C=C\CCCC(=O)O1 | 5.52 µM | 0.454 µM

What follows are molecules tested on NCI-H522 lung (assay: NCI-60 cell line screen, 48 h).

SMILES | TGI | GI50
CCOC(=O)C1C2CCC1CC(=NNc1ccc([N+](=O)[O-])cc1[N+](=O)[O-])C2 (configuration not stated) | > 50 µM | 
O=c1c2ccccc2c(=O)c2c1[nH]c1c(-c3ccccc3)c(-c3ccccc3)c(=O)c12 | 5.73 µM | 2.19 µM
CCc1nc(C(N)=O)c(Nc2ccc(N3CCC(N4CCN(C)CC4)CC3)c(OC)c2)nc1NC1CCOCC1 | 21.7 µM and > 2.52 µM and 23.9 µM | 4.96 µM and 0.763 µM and 6.27 µM
CC/C=C\C[C@H]1C/C=C2/C(=O)C=C[C@@H]2C/C=C\CCCC(=O)O1 | 2.45 µM | 0.57 µM

Each molecule was assayed on NCI-H226 lung (assay: NCI-60 cell line screen, 48 h).

SMILES | TGI | GI50
CCOC(=O)C1C2CCC1CC(=NNc1ccc([N+](=O)[O-])cc1[N+](=O)[O-])C2 (configuration not stated) | > 50 µM | 
O=c1c2ccccc2c(=O)c2c1[nH]c1c(-c3ccccc3)c(-c3ccccc3)c(=O)c12 | 44.5 µM | 3.56 µM
CCc1nc(C(N)=O)c(Nc2ccc(N3CCC(N4CCN(C)CC4)CC3)c(OC)c2)nc1NC1CCOCC1 | 28.8 µM and > 10 µM and 30 µM | 5.45 µM and > 10 µM and 5.78 µM
CC/C=C\C[C@H]1C/C=C2/C(=O)C=C[C@@H]2C/C=C\CCCC(=O)O1 | 4.75 µM | 1.94 µM

What follows are molecules tested on HOP-62 NSCLC (assay: NCI-60 cell line screen, 48 h).

SMILES | TGI | GI50
CCOC(=O)C1C2CCC1CC(=NNc1ccc([N+](=O)[O-])cc1[N+](=O)[O-])C2 (configuration not stated) | > 50 µM | 
O=c1c2ccccc2c(=O)c2c1[nH]c1c(-c3ccccc3)c(-c3ccccc3)c(=O)c12 | 9.15 µM | 3.28 µM
CCc1nc(C(N)=O)c(Nc2ccc(N3CCC(N4CCN(C)CC4)CC3)c(OC)c2)nc1NC1CCOCC1 | 16.3 µM and > 2.98 µM and 17.6 µM | 1.26 µM and 0.238 µM and 1.2 µM
CC/C=C\C[C@H]1C/C=C2/C(=O)C=C[C@@H]2C/C=C\CCCC(=O)O1 | 5.39 µM | 1.81 µM

Each molecule was assayed on MDA-MB-435 (assay: NCI-60 cell line screen, 48 h).

SMILES | TGI | GI50
CCOC(=O)C1C2CCC1CC(=NNc1ccc([N+](=O)[O-])cc1[N+](=O)[O-])C2 (configuration not stated) | > 50 µM | 
O=c1c2ccccc2c(=O)c2c1[nH]c1c(-c3ccccc3)c(-c3ccccc3)c(=O)c12 | 9.42 µM | 3.24 µM
CCc1nc(C(N)=O)c(Nc2ccc(N3CCC(N4CCN(C)CC4)CC3)c(OC)c2)nc1NC1CCOCC1 | 20.7 µM and > 6.91 µM and 20.8 µM | 3.23 µM and 0.511 µM and 3.96 µM
CC/C=C\C[C@H]1C/C=C2/C(=O)C=C[C@@H]2C/C=C\CCCC(=O)O1 | 4.08 µM | 0.37 µM

Each molecule was assayed on MDA-MB-231 breast (assay: NCI-60 cell line screen, 48 h).

SMILES | TGI | GI50
CCOC(=O)C1C2CCC1CC(=NNc1ccc([N+](=O)[O-])cc1[N+](=O)[O-])C2 (configuration not stated) | > 50 µM | 
O=c1c2ccccc2c(=O)c2c1[nH]c1c(-c3ccccc3)c(-c3ccccc3)c(=O)c12 | 43 µM | 4.97 µM
CCc1nc(C(N)=O)c(Nc2ccc(N3CCC(N4CCN(C)CC4)CC3)c(OC)c2)nc1NC1CCOCC1 | 17.7 µM and > 10 µM and 17.2 µM | 3.38 µM and 0.829 µM and 3.52 µM
CC/C=C\C[C@H]1C/C=C2/C(=O)C=C[C@@H]2C/C=C\CCCC(=O)O1 | 13.2 µM | 2.76 µM

The molecules below were run on CCRF-CEM leukemia (assay: NCI-60 cell line screen, 48 h).

SMILES | TGI | GI50
CCOC(=O)C1C2CCC1CC(=NNc1ccc([N+](=O)[O-])cc1[N+](=O)[O-])C2 (configuration not stated) | > 50 µM | 
O=c1c2ccccc2c(=O)c2c1[nH]c1c(-c3ccccc3)c(-c3ccccc3)c(=O)c12 | 11 µM | 1.46 µM
CCc1nc(C(N)=O)c(Nc2ccc(N3CCC(N4CCN(C)CC4)CC3)c(OC)c2)nc1NC1CCOCC1 | 30.1 µM and > 10 µM and 44.4 µM | 3.76 µM and 0.901 µM and 7.12 µM
CC/C=C\C[C@H]1C/C=C2/C(=O)C=C[C@@H]2C/C=C\CCCC(=O)O1 | 5.04 µM | 0.339 µM

The molecules below were run on UACC-62 melanoma (assay: NCI-60 cell line screen, 48 h).

SMILES | TGI | GI50
CCOC(=O)C1C2CCC1CC(=NNc1ccc([N+](=O)[O-])cc1[N+](=O)[O-])C2 (configuration not stated) | > 50 µM | 
O=c1c2ccccc2c(=O)c2c1[nH]c1c(-c3ccccc3)c(-c3ccccc3)c(=O)c12 | 3.38 µM | 1.72 µM
CCc1nc(C(N)=O)c(Nc2ccc(N3CCC(N4CCN(C)CC4)CC3)c(OC)c2)nc1NC1CCOCC1 | 16.9 µM and > 10 µM and 16.4 µM | 1.53 µM and 0.527 µM and 1.56 µM
CC/C=C\C[C@H]1C/C=C2/C(=O)C=C[C@@H]2C/C=C\CCCC(=O)O1 | 2.37 µM | 0.573 µM
